Measurements: PubChem BioAssay (NCI)
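Test compounds were applied to cells in 96-well plates for 48 hours at 5 doses. Definition used: TGI = concentration required for complete inhibition of growth.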

Legend:
Test in all cases: inhibition of tumour cell growth, NCI panel, 48 h
[1] = tested on: HCT-116 colon
[2] = tested on: OVCAR-4 ovarian
[3] = tested on: LOX IMVI melanoma
[4] = tested on: SF-539 CNS
[5] = tested on: DU-145 prostate
[6] = tested on: NCI/ADR-RES ovarian
[7] = tested on: SF-295 CNS
[8] = tested on: HCC-2998 colon
[9] = tested on: SNB-75 CNS
[10] = tested on: SK-MEL-5 melanoma

Compound	TGI [1]	TGI [2]	TGI [3]	TGI [4]	TGI [5]	TGI [6]	TGI [7]	TGI [8]	TGI [9]	TGI [10]
COc1cc(C(c2ccccc2)N2C(=O)CC[C@H]2C(=O)O)cc(OC)c1OC (some centres undefined)	> 100 µM	> 100 µM	> 100 µM	> 100 µM	> 100 µM	> 100 µM	> 100 µM	> 100 µM	> 100 µM	> 100 µM
C=CC(=O)N1C/C(=C\c2ccc(OC)cc2)C(=O)/C(=C/c2ccc(OC)cc2)C1	0.686 µM	13.4 µM	3.37 µM	3.53 µM	23.1 µM	> 31 µM	6.98 µM	2.87 µM	27.3 µM	> 20.4 µM
CCOP(=O)(OCC)/C(=C/n1c(=S)[nH]c2ccccc21)C(=O)OC	> 100 µM	> 100 µM	> 100 µM	> 100 µM	> 100 µM	> 100 µM	> 100 µM	> 100 µM	> 100 µM	> 100 µM
Cc1ccc(C)n1-c1ccccc1C1C=Cn2c(=O)oc3c(OC(C)C)c(OC(C)C)c(O)c1c32 (centres undefined)	> 100 µM	> 100 µM	38.4 µM	> 100 µM	> 100 µM	> 100 µM	> 100 µM	> 100 µM	> 100 µM	> 100 µM
N#Cc1c(/C=C/c2ccccc2)c2c([nH]c1=S)CCCCC2	> 100 µM	> 100 µM	> 100 µM	> 100 µM	> 100 µM	> 100 µM	> 100 µM	> 100 µM	> 100 µM	> 100 µM
CCn1c(CCCc2nc3c([nH]2)c(=O)n(C)c(=O)n3C)nc2c1c(=O)n(C)c(=O)n2C	> 100 µM	> 100 µM	> 100 µM	30.5 µM	> 100 µM	> 100 µM	> 100 µM	> 100 µM	–	27.8 µM
OC(CCN1CCN(CCOC(c2ccccc2)c2ccccc2)CC1)c1ccccc1 (centres undefined)	34.3 µM	> 100 µM	34.2 µM	36.8 µM	> 100 µM	73.1 µM	38.8 µM	28.9 µM	> 100 µM	29.6 µM
COc1ccc(C2N(c3ccc(C)c(N=C=O)c3)C(=O)N3C(c4ccc(OC)cc4)N(c4ccc(C)c(N=C=O)c4)C(=O)N23)cc1 (centres undefined)	> 100 µM	> 100 µM	> 100 µM	> 100 µM	> 100 µM	> 100 µM	> 100 µM	> 100 µM	> 100 µM	> 100 µM
O=C1C(c2ccccc2)=C(c2ccccc2)C1(Cl)Cl	2.85 µM	11.4 µM	4.25 µM	9.22 µM	24.5 µM	> 27 µM	28.7 µM	13.3 µM	16.6 µM	8.03 µM
CCCCCCCCCCCC(=O)N(CCCCCCCCC)CC(O)C(O)C(OC1OC(CO)C(O)C(O)C1O)C(O)CO (centres undefined)	32.8 µM	49.6 µM	40.2 µM	50.8 µM	33.8 µM	38.7 µM	40 µM	32 µM	34.3 µM	35 µM
O=C(CCCCCNC(=O)c1ccc(Cl)cc1)NO	10.7 µM	> 100 µM	17 µM	> 100 µM	> 100 µM	5.07 µM	36.1 µM	18.3 µM	30.8 µM	13.9 µM
C=C(C)C1(Sc2ccc(OC)cc2)CC1	> 100 µM	> 100 µM	33.4 µM	> 100 µM	> 100 µM	> 100 µM	71 µM	34.2 µM	78.5 µM	31.6 µM
COc1cc2nc(-c3cccs3)nc(Nc3ccccc3C(=O)NN)c2cc1OC	> 100 µM	> 100 µM	> 100 µM	> 100 µM	> 100 µM	> 100 µM	> 100 µM	> 100 µM	> 100 µM	> 100 µM
O=[N+]([O-])c1c(O)c2nonc2c2nn(-c3ccccc3)nc12	> 100 µM	> 100 µM	> 100 µM	> 100 µM	> 100 µM	> 100 µM	> 100 µM	> 100 µM	> 100 µM	> 100 µM
NC1(c2cc3ccccc3s2)CCCCCC1	29.5 µM	27.7 µM	43 µM	32.8 µM	30.9 µM	33.7 µM	32.5 µM	4.49 µM	23.2 µM	28.8 µM
COC(=O)NC(Cc1ccccc1)NC(=O)OC(C)(C)C (centres undefined)	> 100 µM	> 100 µM	> 100 µM	> 100 µM	> 100 µM	> 100 µM	> 100 µM	> 100 µM	> 100 µM	> 100 µM
CSc1nnnc2ccccc12	> 100 µM	> 100 µM	> 100 µM	> 100 µM	> 100 µM	> 100 µM	> 100 µM	> 100 µM	> 100 µM	> 100 µM
CCCCCCc1ccc(CCCCCCCC(=O)O)o1	> 100 µM	> 100 µM	> 100 µM	> 100 µM	> 100 µM	> 100 µM	> 100 µM	> 100 µM	> 100 µM	> 100 µM
CCOC(=O)c1nc2ccccc2nc1Nc1ccc(C(=O)OC)s1	> 100 µM	> 100 µM	> 100 µM	> 100 µM	> 100 µM	> 100 µM	> 100 µM	> 100 µM	> 100 µM	> 100 µM
